Experiments:
[1] = tested on: HS-Sch-2; assay: % inhibition of CellTiter-Glo viability at highest tested concentration (72 h), relative to DMSO and benzethonium chloride controls; higher = more inhibition
Outline: (§1)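 MPNST cell lines and primary human Schwann cells were seeded at 750–1000 cells per well into 384-well plates preprinted with each compound at five concentrations in 10-fold steps, then incubated 72 h at 37 °C, 5% CO2. CellTiter-Glo ATP luminescence gave viability, scaled between vehicle and positive-control wells, with duplicates averaged where present. Curves were fitted with a four-parameter logistic model. Percent inhibition refers to the top concentration, while drug sensitivity score and relative IC50, censored at the top concentration, come from these fits.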

[2] = tested on: YST-1; assay: as above
Outline: as §1

[3] = tested on: HS-PSS; assay: as above
Outline: as §1

[4] = tested on: HS-PSS; assay: drug sensitivity score (DSS, CellTox-Green cytotoxicity, 72 h) (DSS (dimensionless)); higher = more cytotoxic; extreme values may be limits of the assay
Outline: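 For 72 h at 37 °C, MPNST cell lines and primary human Schwann cells were exposed in 384-well plates to five 10-fold compound dilutions. CellTox-Green, added before seeding at a final 1:1000 dilution, gave fluorescence from DNA released by disrupted cells. Signals were scaled to vehicle and positive-control wells, cultures failing plate quality control were left out, and four-parameter logistic fits were applied. Relative IC50 and drug sensitivity score were derived from the fits, with IC50 censored at the top concentration.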

[5] = tested on: HS-Sch-2; assay: drug sensitivity score (DSS, CellTiter-Glo viability, 72 h) (DSS (dimensionless)); higher = more sensitive; extreme values may be limits of the assay
Outline: as §1

[6] = tested on: YST-1; assay: as above
Outline: as §1

[7] = tested on: HS-PSS; assay: as above
Outline: as §1

Question: What does the source list for `NC(=O)c1cccc(-c2cccc(OC(=O)NC3CCCCC3)c2)c1` [URB597] (max concentration tested 1000 nM)?
Answer: % inhibition [1]: 0.43%; % inhibition [2]: -6.54%; % inhibition [3]: 18.8%; drug sensitivity score [4]: 0; drug sensitivity score [5]: 0; drug sensitivity score [6]: 0; drug sensitivity score [7]: 1.09

Question: For `O=c1sn(-c2cccc3ccccc23)c(=O)n1Cc1ccccc1` [Tideglusib] (max concentration tested 3000 nM), which “% inhibition” value [1] is on record?
Answer: 2.01%

Question: And the “% inhibition” value [2]?
Answer: 3.93%

Question: And the “% inhibition” value [3]?
Answer: 6.62%

Question: What about the drug sensitivity score [4] of the same compound?
Answer: 0

Question: What about the drug sensitivity score [5] of the same compound?
Answer: 0

Question: And the drug sensitivity score [6]?
Answer: 0

Question: What about the drug sensitivity score [7] of the same compound?
Answer: 0

Question: `Cc1c(CN2CCN(C(=O)[C@H](C)O)CC2)sc2c(N3CCOCC3)nc(-c3cnc(N)nc3)nc12` [Apitolisib] (max concentration tested 10000 nM) was tested. Which “% inhibition” value [1] did it give?
Answer: 71.5%

Question: What about the “% inhibition” value [2] of the same compound?
Answer: 86.9%

Question: And the “% inhibition” value [3]?
Answer: 64.5%

Question: What about the drug sensitivity score [4] of the same compound?
Answer: 0

Question: What about the drug sensitivity score [5] of the same compound?
Answer: 9.07

Question: And the drug sensitivity score [6]?
Answer: 18.3

Question: And the drug sensitivity score [7]?
Answer: 8.39

Question: `CC(C)N(C[C@H]1O[C@@H](n2cnc3c(N)ncnc32)[C@H](O)[C@@H]1O)[C@H]1C[C@@H](CCc2nc3cc(C(C)(C)C)ccc3[nH]2)C1` [Pinometostat] (max concentration tested 1000 nM) was tested. Which “% inhibition” value [1] did it give?
Answer: -7.39%

Question: What about the “% inhibition” value [2] of the same compound?
Answer: -2.52%

Question: And the “% inhibition” value [3]?
Answer: 5.45%

Question: What about the drug sensitivity score [4] of the same compound?
Answer: 0

Question: What about the drug sensitivity score [5] of the same compound?
Answer: 0

Question: And the drug sensitivity score [6]?
Answer: 0

Question: And the drug sensitivity score [7]?
Answer: 0

Question: Which “% inhibition” value [1] does the source give for `CCN1CCN(Cc2ccc(Nc3ncc(F)c(-c4cc(F)c5nc(C)n(C(C)C)c5c4)n3)nc2)CC1` [Abemaciclib] (max concentration tested 2500 nM) here?
Answer: 31.6%

Question: And the “% inhibition” value [2]?
Answer: 28.3%

Question: What about the “% inhibition” value [3] of the same compound?
Answer: 22%

Question: What about the drug sensitivity score [4] of the same compound?
Answer: 0.89

Question: And the drug sensitivity score [5]?
Answer: 1.05

Question: And the drug sensitivity score [6]?
Answer: 6.03

Question: And the drug sensitivity score [7]?
Answer: 1.78

Question: With `CN(C)C(=O)c1ccc(S(=O)(=O)c2ccc(NC(=O)[C@@](C)(O)C(F)(F)F)c(Cl)c2)cc1` [AZD7545] (max concentration tested 10000 nM) as the compound, how does the “% inhibition” value [1] read?
Answer: 17.4%

Question: What about the “% inhibition” value [2] of the same compound?
Answer: 2.29%

Question: What about the “% inhibition” value [3] of the same compound?
Answer: 57%

Question: What about the drug sensitivity score [4] of the same compound?
Answer: 0

Question: What about the drug sensitivity score [5] of the same compound?
Answer: 0.76

Question: What about the drug sensitivity score [6] of the same compound?
Answer: 0

Question: And the drug sensitivity score [7]?
Answer: 2.45

Question: Which “% inhibition” value [1] does the source give for `Cc1cnc(-c2ccccc2C(C)C)nc1NCc1ccc(-n2ccnn2)cc1` [ML323] (max concentration tested 10000 nM) here?
Answer: 39.9%

Question: What about the “% inhibition” value [2] of the same compound?
Answer: 18.2%

Question: And the “% inhibition” value [3]?
Answer: 42%

Question: What about the drug sensitivity score [4] of the same compound?
Answer: 0

Question: And the drug sensitivity score [5]?
Answer: 3.67

Question: And the drug sensitivity score [6]?
Answer: 0.66

Question: What about the drug sensitivity score [7] of the same compound?
Answer: 3.56

Question: `Cc1[nH]c(/C=C2\C(=O)Nc3ccccc32)c(C)c1CCC(=O)O` [Orantinib] (max concentration tested 10000 nM) was tested. Which “% inhibition” value [1] did it give?
Answer: 0.75%

Question: And the “% inhibition” value [2]?
Answer: 20%

Question: And the “% inhibition” value [3]?
Answer: 15%

Question: And the drug sensitivity score [4]?
Answer: 20.3

Question: And the drug sensitivity score [5]?
Answer: 0

Question: And the drug sensitivity score [6]?
Answer: 0.72

Question: What about the drug sensitivity score [7] of the same compound?
Answer: 0.29

Question: Which “% inhibition” value [1] does the source give for `O=C1c2ccccc2-c2n[nH]c3cccc1c23` (max concentration tested 100000 nM) here?
Answer: 27.4%

Question: What about the “% inhibition” value [2] of the same compound?
Answer: 34.2%

Question: And the “% inhibition” value [3]?
Answer: 43.2%

Question: What about the drug sensitivity score [4] of the same compound?
Answer: 0.2

Question: And the drug sensitivity score [5]?
Answer: 2.29

Question: What about the drug sensitivity score [6] of the same compound?
Answer: 2.42

Question: And the drug sensitivity score [7]?
Answer: 4.26

Question: Which results are given for `COc1cc2nccc(Oc3ccc(NC(=O)NC4CC4)c(Cl)c3)c2cc1C(N)=O` [Lenvatinib] (max concentration tested 2500 nM)?
Answer: % inhibition [1]: 15%; % inhibition [2]: 18.1%; % inhibition [3]: 5.51%; drug sensitivity score [4]: 0; drug sensitivity score [5]: 0.06; drug sensitivity score [6]: 0.83; drug sensitivity score [7]: 0

Question: With `Cc1csc(-c2nnc(Nc3ccc(Oc4ncccc4-c4ccnc(N)n4)cc3)c3ccccc23)c1` [AMG-900] (max concentration tested 1000 nM) as the compound, how does the “% inhibition” value [1] read?
Answer: 30%

Question: What about the “% inhibition” value [2] of the same compound?
Answer: 29.8%

Question: And the “% inhibition” value [3]?
Answer: 19.6%

Question: And the drug sensitivity score [4]?
Answer: 0

Question: And the drug sensitivity score [5]?
Answer: 1.27

Question: And the drug sensitivity score [6]?
Answer: 9.1

Question: And the drug sensitivity score [7]?
Answer: 0.8

Question: For `CON(C)C(=O)N1N=C(c2cc(F)ccc2F)S[C@@]1(CCCN)c1ccccc1` [Filanesib] (max concentration tested 1000 nM), which “% inhibition” value [1] is on record?
Answer: 88.7%

Question: And the “% inhibition” value [2]?
Answer: 78.3%

Question: What about the “% inhibition” value [3] of the same compound?
Answer: 29%

Question: And the drug sensitivity score [4]?
Answer: 0

Question: What about the drug sensitivity score [5] of the same compound?
Answer: 29.1

Question: What about the drug sensitivity score [6] of the same compound?
Answer: 25.7

Question: And the drug sensitivity score [7]?
Answer: 7.81

Question: `O=C(O)C(=O)O.[NH-][C@@H]1CCCC[C@H]1[NH-].[Pt+2]` [Oxaliplatin] (max concentration tested 100000 nM) was tested. Which “% inhibition” value [1] did it give?
Answer: 100%

Question: And the “% inhibition” value [2]?
Answer: 97.7%

Question: And the “% inhibition” value [3]?
Answer: 69.2%

Question: And the drug sensitivity score [4]?
Answer: 3.02

Question: What about the drug sensitivity score [5] of the same compound?
Answer: 11.4

Question: And the drug sensitivity score [6]?
Answer: 19.6

Question: What about the drug sensitivity score [7] of the same compound?
Answer: 8.54

Question: With `CC(C)NC(=O)COc1cccc(-c2nc(Nc3ccc4[nH]ncc4c3)c3ccccc3n2)c1` [SLx-2119] (max concentration tested 5000 nM) as the compound, how does the “% inhibition” value [1] read?
Answer: 29.4%

Question: And the “% inhibition” value [2]?
Answer: 83.7%

Question: And the “% inhibition” value [3]?
Answer: 48.7%

Question: And the drug sensitivity score [4]?
Answer: 0

Question: What about the drug sensitivity score [5] of the same compound?
Answer: 2.63

Question: What about the drug sensitivity score [6] of the same compound?
Answer: 13.6

Question: What about the drug sensitivity score [7] of the same compound?
Answer: 3.67

Question: For `C=CC(=O)N1CCC(Oc2cc3c(Nc4ccc(Cl)c(Cl)c4F)ncnc3cc2OC)CC1` [Poziotinib] (max concentration tested 1000 nM), which “% inhibition” value [1] is on record?
Answer: 3.19%

Question: And the “% inhibition” value [2]?
Answer: 12.9%

Question: What about the “% inhibition” value [3] of the same compound?
Answer: 6.52%

Question: What about the drug sensitivity score [4] of the same compound?
Answer: 0

Question: What about the drug sensitivity score [5] of the same compound?
Answer: 0

Question: And the drug sensitivity score [6]?
Answer: 0.25

Question: And the drug sensitivity score [7]?
Answer: 0

Question: How did the “% inhibition” value [1] turn out when `CC[C@H](C)C(=O)O[C@H]1C[C@H](O)C=C2C=C[C@H](C)[C@H](CC[C@@H](O)C[C@@H](O)CC(=O)O)[C@H]21` [Pravastatin] (max concentration tested 10000 nM) was run?
Answer: -3.68%

Question: And the “% inhibition” value [2]?
Answer: 0.31%

Question: What about the “% inhibition” value [3] of the same compound?
Answer: 24.1%

Question: And the drug sensitivity score [4]?
Answer: 0

Question: What about the drug sensitivity score [5] of the same compound?
Answer: 0

Question: What about the drug sensitivity score [6] of the same compound?
Answer: 0

Question: What about the drug sensitivity score [7] of the same compound?
Answer: 1.44

Question: `COCC1(CO)C(=O)C2CCN1CC2` (stereo unspecified) [APR-246] (max concentration tested 10000 nM) was tested. Which “% inhibition” value [1] did it give?
Answer: 5%

Question: What about the “% inhibition” value [2] of the same compound?
Answer: -11%

Question: And the “% inhibition” value [3]?
Answer: 13.1%

Question: What about the drug sensitivity score [4] of the same compound?
Answer: 0

Question: And the drug sensitivity score [5]?
Answer: 0

Question: What about the drug sensitivity score [6] of the same compound?
Answer: 0

Question: What about the drug sensitivity score [7] of the same compound?
Answer: 0.39

Question: What does the source list for `CC(=O)N(O)CCCCCNC(=O)CCC(=O)N(O)CCCCCNC(=O)CCC(=O)N(O)CCCCCN` [Deferoxamine] (max concentration tested 10000 nM)?
Answer: % inhibition [1]: 96.3%; % inhibition [2]: 78.5%; % inhibition [3]: 89.5%; drug sensitivity score [4]: 1; drug sensitivity score [5]: 10.5; drug sensitivity score [6]: 6.36; drug sensitivity score [7]: 8.62
